This assay addresses T1, PAF-Rezeptor (Homo sapiens, UniProt P25105).
T1 construct: endogenous in cells; host or cells: intact human platelets from blood of healthy donors, purified on Sepharose CL-2B
Put plainly: [3H]PAF receptor binding on vital human platelets (competitive displacement of the radioligand). The settings on record: potency of the (-)-enantiomer relative to the other enantiomer, [³H]PAF binding. The text has this:
Überraschenderweise wurde gefunden, daß das (-)-Enantiomere 40-mal wirkungsstärker ist. Die pharmakologische Wirkung wurde anhand des nachfolgenden Experiments bestimmt: [³H]PAF-Rezeptor-Bindung an vitalen humanen Blutplättchen
Bestimmt wird die konkurrierende Wechselwirkung von Prüfsubstanzen (hier PAF-Antagonisten) mit der bekannten Wechselwirkung des Radioliganden [³H]PAF zum gleichen Rezeptor. Die Bindungsstudien wurden an vitalem menschlichen Thrombozyten vorgenommen. Blutproben von gesunden Spendern wurden mit ACD-Puffer verdünnt und zentrifugiert (15 Min., 160 x g). Das blättchenreiche Plasma wird durch Chromatographie an Sepharose CL-2B [Zum Eluieren: HEPES-Puffer, pH 7,4 20°C] gereinigt.
Definierte Mengen [z.B. 800 µl] der Blättchensuspension wurden 90 Min. bei Raumtemperatur inkubiert, d.h. vermischt mit: • a) einer […] [³H]PAF-Lösung, verdünnt mit Puffer. • b) mit einer 30 pmolaren [³H] PAF-Lösung, die gleichzeitig eine µmolare (nicht markierte) PAF-Lösung enthält, • c) mit der 30 pmolaren [³H]PAF-Lösung und den Lösungen der Prüfsubstanzen (unterschiedliche Konzentrationen) • a) Dient zur Ermittlung der totalen Bindung, • b) dient zur Ermittlung der unspezifischen Bindung.
Die Reaktion wurde durch Vakuumfiltration abgestoppt. Die Filter mit den Blutplättchen werden mit Szintilationsflüssigkeit versetzt und die verbliebene Radioaktivität in einem Counter gemessen. […]

T1 sequence (P25105 whole entry): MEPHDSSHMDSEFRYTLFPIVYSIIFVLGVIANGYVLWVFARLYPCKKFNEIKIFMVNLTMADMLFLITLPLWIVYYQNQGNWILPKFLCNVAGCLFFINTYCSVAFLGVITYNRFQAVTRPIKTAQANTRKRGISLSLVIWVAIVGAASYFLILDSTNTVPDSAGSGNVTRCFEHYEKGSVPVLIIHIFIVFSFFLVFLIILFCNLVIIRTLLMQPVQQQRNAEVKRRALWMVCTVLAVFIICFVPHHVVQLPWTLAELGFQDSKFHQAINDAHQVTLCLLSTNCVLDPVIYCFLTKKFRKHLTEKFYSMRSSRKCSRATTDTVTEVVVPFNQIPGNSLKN

Regarding `Cc1nnc2n1-c1sc(CCc3ccc(CC(C)C)cc3)cc1C(c1ccccc1Cl)=NC2C` (single isomer, unassigned; (-)) [(-)Enantiomer, (-)-4-(2-Chlorphenyl)-2-[2-(4-isobutylphenyl)ethyl]-6,9-dimethyl-6H-thieno[3,2-f][1,2,4]triazolo[4,3-a][1,4]diazepin], the wirkungsstärker was found to be 40 mal.
